This is an account of results in US7893068B2, “Physiologically active substances” (Mercian Corporation, priority 2002, dated 2011).

As usually defined, the IC50 is the concentration at which inhibition is half-maximal.

Series [1] deals with VEGF promoter. Nature of the series: VEGF transcription-suppressing activity (VEGF promoter-PLAP reporter, U251/1-8 cells, hypoxia). Format: cell-based. The conditions noted are these: Homo sapiens, U-251, 18 h, read-out: VEGF transcription-suppressing activities (IC50: nM). The source says: In order to prepare reporter system reflecting transcription from VEGF promoter, VEGF promoter sequence was cloned, and inserted in secretory alkaline phosphatase (PLAP) vector to construct reporter vector.
In order to obtain the promoter region of human VEGF, VEGF genomic DNA was cloned from phage library. PCR primers having the sequences described in Sequence Numbers 1 and 2 were designed based on VEGF cDNA (GenBank accession number: X62568) and a fragment having about 340 bp was obtained by carrying out PCR. Human genomic phage library (Human genomic library, Clontech Co.) was screened using this as a probe to obtain VEGF genomic DNA. The DNA was digested by EcoRI, and the resultant fragments were inserted in the EcoRI site of pUC18. Finally, pUC18-VEGFA containing about 5.4 kb of VEGF 5′ flanking region was obtained. The pUC18-VEGFA was digested by KpnI/NheI, VEGF promoter region of about 2.3 kb obtained was inserted in the multi cloning site KpnI/NheI of secretory alkaline phosphatase (PLAP) vector (Goto et al, Mol. Pharmacol., 49, 860-873, 1996), and thus, VEGF-PLAP vector was constructed.
The above-mentioned VEGF-PLAP vector was transfected in the U251 cell cultured in the DULBECCO-modified eagle medium (DMEM; manufactured by SIGMA Co., Ltd.) containing 10% fetal calf serum, and the cells were cultured in the presence of 1 mg/mL G418 (Merck Co.) to establish G418 resistant stable clone (U251/1-8 cell).
It was confirmed that U251/1-8 cell secreted PLAP under hypoxic condition (2% O2 incubator) in the same manner as in the report (Cell. Mol. Biol. Res. 40, 35-39, 1994) and was a reporter system reflecting the transcription from VEGF promoter. The screening of the compound suppressing VEGF production which was induced by hypoxic stimulation was carried out below using the clone.
In order to remove the influence of alkaline phosphates in serum, U251/1-8 cells were rinsed twice with the adequate amount of PBS (Phosphate buffered saline), diluted in the DMEM medium containing 10% of serum in which alkaline phosphates was inactivated by the treatment of 65° C. for 20 min., and dispensed in 96-well plates by 4×10^4 cells/180 μL.
After culturing at 37° C. overnight in a CO2 incubator (5% CO2), 20 μL of the above-mentioned incubation solution containing the test compound diluted with 3-fold succession was added, and then they were incubated in a hypoxic (2% […]) incubator for 18 hours. With respect to the PLAP activity in the culture supernatants, 10 μL of the supernatants was added to 50 μL of 0.28 M Na2CO3—NaHCO3 buffer solution (pH 10.0, 8.0 mM MgSO4), and finally 50 μL of alkaline phosphatase substrate (LUMISTEIN, Genomescience Co.) was added. After reacting for one hour, the alkaline phosphatase activity of the PLAP was measured by detecting the chemical luminescence by a micro plate reader (Perkin-Elmer Co.). The PLAP activity under normoxia was set as 0%, the PLAP activity of cell which was treated under hypoxia was set as 100%, and the concentration suppressing the PLAP activity by 50% was set as the IC50 value of PLAP. The IC50 values of 11107D derivatives shown in Examples were measured, and the IC50 values of representative 11107D derivatives are shown in Table 1.

For series [2], the system named is WiDr human colon cancer cells. Nature of the series: Growth inhibitory activities on WiDr human colon cancer cells (MTT). It counts as cell-based. The settings on record: 72 h, three days incubation. The method, then: WiDr human colon cancer cells cultured in DULBECCO-modified eagle medium (DMEM; manufactured by SIGMA Co., Ltd.) containing 10% fetal calf serum, penicillin (100 unit/mL) and streptomycin (100 μg/mL) were dispensed in 96-well plates by 2×10^3 cells/well. After culturing overnight in a CO2 incubator, 20 μL of the above-mentioned incubation solution containing the test compound diluted with 3-fold succession was added, followed by incubation. After three days, 50 μL of 3.3 mg/mL MTT solution was added, followed by culturing for further one hour. Then, formazan formed by the reduction by the action of living cells was extracted with 100 μL of DMSO, the absorbance (A540/A660) was determined and was set as the index of the number of living cells.
The concentrations of the compounds of the formula (I) at which the growth of WiDr human colon cancer cells are inhibited 50% were determined.

Series [3] has as its system WiDr human colon cancer cells. The series is described as follows: Solid tumor growth inhibitory activities, WiDr human colon tumor model in nude mice. Format: in vivo. The conditions noted are these: Mus musculus, iv, 360 h, read-out: Growth inhibitory activities in the WiDr human solid tumor model (T/C %). The source says:
(§1) In order to study solid tumor growth inhibitory activities of the compounds of the formula (I) in vivo, WiDr human colon cancer cells were implanted subcutaneously into the flanks of nude mice. […]. The animals were grouped so that the average of the volumes of the respective groups became uniform, when it reached about 100 mm^3. Control group was made up of 10 mice and 11107D-administering groups were made up of 5 mice. The derivatives were administered for the administering groups for 5 consecutive days by intravenous injection so as to be any of 0.625 mg, 1.25 mg, 2.5 mg, 5 mg and 10 mg/kg/day, and a vehicle was administered to the control group. The tumor volumes on Day 15 were measured, and relative tumor volume ratios (T/C %) were determined setting the tumor volume of the control group as 100%. The body weights on Day 1, Day 5, Day 8, Day 12 and Day 15 (or 16) were measured, and relative body weight variations were determined setting the body weight on Day 1 as 100%. The relative body weight ratios on the day where the body weight reached the minimum were defined as the minimum relative weight ratios and are shown in Table 3.

Series [4] can be described thus: Body weight loss (acute toxicity) in the WiDr tumor model. It counts as in vivo, nude mice. The settings on record: intravenous 5 consecutive days, body weight relative to Day 1.
Excerpt: as §1

A short description of series [5]: Stability in an aqueous solution (HPLC residual ratio). The settings on record: for Peak area (mAU × sec) after 24 hours / The residual ratios (%): Britton-Robinson's buffer pH 7, 25° C., 24 hours; for Peak area (mAU × sec) initial: Britton-Robinson's buffer pH 7, before incubation.
Method: The compounds of the formula (I) were dissolved in DMSO in concentrations of 10 to 20 mM, and these were diluted about 500 folds with Britton-Robinson's buffer solution of pH 7. Each of the solutions as sample solutions was incubated at 25° C. for 24 hours.
The sample solutions were analyzed by high performance liquid chromatography before and after incubation, and the residual ratios of the tested substances in the sample solutions after incubation were determined from the peak areas of the obtained chromatograms.

As to `CCC(O)C(C)C1OC1CC(C)(O)/C=C/C=C(\C)C1OC(=O)CC(O)CCC(C)(O)C(OC(=O)N(C)CCN(C)C)/C=C/C1C` (stereo not shown) [Compound 6, (8E,12E,14E)-7-(N-(2-(N′,N′-Dimethylamino)ethyl)-N-methylcarbamoyloxy)-3,6,16,21-tetrahydroxy-6,10,12,16,20-pentamethyl-18,19-epoxytricosa-8,12,14-trien-11-olide], the IC50 in series [1] amounted to 32 nM; in series [2], 12.5 nM. In addition, in series [3], the response vs control in vivo at 1.25 mg/kg is 35%. Besides, the “the minimum relative weight ratios” value in series [4] (Dose 1.25 mg/kg) came to 0.81.

Take `CCC(O)C(C)C1OC1CC(C)(O)/C=C/C=C(\C)C1OC(=O)CC(O)CCC(C)(O)C(OC(=O)N2CCCN(C)CC2)/C=C/C1C` (stereo not shown) [Compound 9, (8E,12E,14E)-3,6,16,21-Tetrahydroxy-6,10,12,16,20-pentamethyl-7-((4-methylhomopiperazin-1-yl)carbonyl)oxy-18,19-epoxytricosa-8,12,14-trien-11-olide]: the IC50 in series [1] is 12.9 nM. This molecule also showed an IC50 in series [2] of 5.5 nM. Further, in series [3], the response vs control in vivo at 5 mg/kg was 10%. For the same molecule, in series [4] (Dose 5.0 mg/kg), the “the minimum relative weight ratios” value worked out at 0.86. In series [5], the “Peak area (mAU × sec) after 24 hours” value came out at 5476 mAU × sec, the “The residual ratios (%)” value is reported as 96.2% and the “Peak area (mAU × sec) initial” value came to 5690 mAU × sec.

Take `CCC(O)C(C)C1OC1CC(C)(O)/C=C/C=C(\C)C1OC(=O)CC(O)CCC(C)(O)C(OC(=O)N2CCN(C)CC2)/C=C/C1C` (stereo not shown) [Compound 12, (8E,12E,14E)-3,6,16,21-Tetrahydroxy-6,10,12,16,20-pentamethyl-7-((4-methylpiperazin-1-yl)carbonyl)oxy-18,19-epoxytricosa-8,12,14-trien-11-olide]: in series [1], the IC50 is 10.2 nM. Besides, the response vs control in vivo at 2.5 mg/kg in series [3] amounted to 21%. The “the minimum relative weight ratios” value in series [4] (Dose 2.5 mg/kg) turned out to be 0.85. In series [5], the “Peak area (mAU × sec) after 24 hours” value amounted to 5169 mAU × sec, the “The residual ratios (%)” value amounted to 94.9% and the “Peak area (mAU × sec) initial” value is 5450 mAU × sec.

`CCCCN1CCN(C(=O)OC2/C=C/C(C)C(/C(C)=C/C=C/C(C)(O)CC3OC3C(C)C(O)CC)OC(=O)CC(O)CCC2(C)O)CC1` (stereo not shown) [Compound 16, (8E,12E,14E)-7-((4-Butylpiperazin-1-yl)carbonyl)oxy-3,6,16,21-tetrahydroxy-6,10,12,16,20-pentamethyl-18,19-epoxytricosa-8,12,14-trien-11-olide]: the IC50 in series [1] came out at 3.1 nM; in series [2] it was 2 nM. The response vs control in vivo at 2.5 mg/kg in series [3] worked out at 28%. In addition, in series [4] (Dose 2.5 mg/kg), the “the minimum relative weight ratios” value came to 0.90.

In the case of `CCC(O)C(C)C1OC1CC(C)(O)/C=C/C=C(\C)C1OC(=O)CC(O)CCC(C)(O)C(OC(=O)N2CCN(CC)CC2)/C=C/C1C` (stereo not shown) [Compound 21, (8E,12E,14E)-7-((4-Ethylpiperazin-1-yl)carbonyl)oxy-3,6,16,21-tetrahydroxy-6,10,12,16,20-pentamethyl-18,19-epoxytricosa-8,12,14-trien-11-olide], the half-inhibitory concentration (IC50) in series [1] stood at 6.1 nM; in series [2], 3.2 nM. Also, the response vs control in vivo at 2.5 mg/kg in series [3] amounted to 28%. Besides, the “the minimum relative weight ratios” value in series [4] (Dose 2.5 mg/kg) is given as 0.80.

Turning to `CCC(O)C(C)C1OC1CC(C)(O)/C=C/C=C(\C)C1OC(=O)CC(O)CCC(C)(O)C(OC(=O)N2CCC(N3CCCCC3)CC2)/C=C/C1C` (stereo not shown) [Compound 22, (8E,12E,14E)-3,6,16,21-Tetrahydroxy-6,10,12,16,20-pentamethyl-7-((4-(piperidin-1-yl)piperidin-1-yl)carbonyl)oxy-18,19-epoxytricosa-8,12,14-trien-11-olide], the IC50 in series [1] was 25.6 nM. Moreover, the midpoint of inhibition in series [2], the IC50, lay at 14.6 nM. For the same molecule, the response vs control in vivo at 5 mg/kg in series [3] is 39%. For the same molecule, the “the minimum relative weight ratios” value in series [4] (Dose 5.0 mg/kg) stood at 0.74. Also, in series [5], the “Peak area (mAU × sec) after 24 hours” value amounted to 4514 mAU × sec, the “The residual ratios (%)” value came out at 95.8% and the “Peak area (mAU × sec) initial” value is given as 4713 mAU × sec.

In the case of `CCC(O)C(C)C1OC1CC(C)(O)/C=C/C=C(\C)C1OC(=O)CC(O)CCC(C)(O)C(OC(=O)N2CCN(C3CCCCC3)CC2)/C=C/C1C` (stereo not shown) [Compound 26, (8E,12E,14E)-7-((4-Cyclohexylpiperazin-1-yl)carbonyl)oxy-3,6,16,21-tetrahydroxy-6,10,12,16,20-pentamethyl-18,19-epoxytricosa-8,12,14-trien-11-olide], the IC50 in series [1] was determined as 2.8 nM; in series [2], 1.6 nM. In series [3], the response vs control in vivo at 2.5 mg/kg was found to be 42%. The “the minimum relative weight ratios” value in series [4] (Dose 2.5 mg/kg) is 0.93.

Turning to `CCC(O)C(C)C1OC1CC(C)(O)/C=C/C=C(\C)C1OC(=O)CC(O)CCC(C)(O)C(OC(=O)N2CCN(C(C)C)CC2)/C=C/C1C` (stereo not shown) [Compound 44, (8E,12E,14E)-3,6,16,21-Tetrahydroxy-7-((4-isopropylpiperazin-1-yl)carbonyl)oxy-6,10,12,16,20-pentamethyl-18,19-epoxytricosa-8,12,14-trien-11-olide], the IC50 in series [1] worked out at 3.9 nM. The IC50 in series [2] worked out at 2.1 nM. For the same molecule, the response vs control in vivo at 5 mg/kg in series [3] came to 19%. Further, the “the minimum relative weight ratios” value in series [4] (Dose 5.0 mg/kg) is recorded as 0.89. Moreover, in series [5], the “Peak area (mAU × sec) after 24 hours” value worked out at 3820 mAU × sec, the “The residual ratios (%)” value amounted to 94.8% and the “Peak area (mAU × sec) initial” value came to 4031 mAU × sec.
